Test results reported in BindingDB's records for patent US20240317732 (Department of Health And Human Service, 2024).

Biological target: Proteasomal ubiquitin receptor ADRM1 (Homo sapiens, UniProt Q16186)
Assay: Isothermal Titration Calorimetry Experiments
Procedure: ITC experiments were performed at 25° C. on a MicroCal iTC200 system (Malvern, PA, USA). hRpn13 Pru, XL5, XL5 derivative, or RA190 were prepared in buffer C. One aliquot of 0.5 μL followed by 17 or 18 aliquots of 2.1 μL of 200 μM hRpn13 Pru was injected at 750 r.p.m. into a calorimeter cell (volume […]) that contained 20 μM XL5, XL5 derivative, or RA190. Blank experiments were performed by replacing XL5, XL5 derivative, or RA190 with buffer in the cell and the resulting data subtracted from the experimental data during analyses. The integrated interaction heat values were normalized as a function of protein concentration and the data were fit with MicroCal Origin 7.0-based software implementing the One Set of Sites model to yield binding affinity Ka (1/Kd), stoichiometry, and other thermodynamic parameters.

Proteasomal ubiquitin receptor ADRM1, sequence (Q16186 whole entry): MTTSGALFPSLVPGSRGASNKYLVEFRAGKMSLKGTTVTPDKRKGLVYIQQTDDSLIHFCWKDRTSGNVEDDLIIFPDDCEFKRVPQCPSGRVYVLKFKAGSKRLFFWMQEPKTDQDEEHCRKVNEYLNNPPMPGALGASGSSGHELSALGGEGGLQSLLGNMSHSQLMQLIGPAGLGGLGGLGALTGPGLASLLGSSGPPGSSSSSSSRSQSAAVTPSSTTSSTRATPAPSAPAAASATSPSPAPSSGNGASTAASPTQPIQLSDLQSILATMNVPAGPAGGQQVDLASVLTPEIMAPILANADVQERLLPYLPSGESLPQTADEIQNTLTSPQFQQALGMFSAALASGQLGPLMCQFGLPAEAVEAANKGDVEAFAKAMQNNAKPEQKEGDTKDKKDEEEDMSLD

Compound	Kd [µM]
Cc1ccc(C(=O)Nc2cccc(C=C(C#N)C(=O)Nc3cccc(C(F)(F)F)c3C(=O)O)c2)cc1 [US20240317732, Compound XL30]	12.4
N#C/C(=C\c1cccc(NC(=O)c2ccccc2Cl)c1)C(=O)Nc1ccccc1C(=O)O [US20240317732, Compound XL23]	3.88
COc1ccc(NC(=O)/C(C#N)=C/c2cccc(NC(=O)c3ccc(C)cc3)c2)c(C(=O)O)c1 [US20240317732, Compound XL28]	3.82
Cc1ccc(C(=O)Nc2cccc(C=C(C#N)C(=O)Nc3ccccc3C(=O)O)c2)nc1O [US20240317732, Compound XL27]	3.94
CNc1ccc(NC(=O)/C(C#N)=C/c2cccc(NC(=O)c3ccc(C)cc3)c2)c(C(=O)O)c1 [US20240317732, Compound XL29]	7.81
N#CC(=Cc1cccc(NC(=O)c2ccc(NCC(=O)O)cc2)c1)C(=O)Nc1ccccc1C(=O)O [US20240317732, Compound XL25]	4.12
